Test results reported in paper PMC8815882, “Screening the pandemic response box identified benzimidazole carbamates, Olorofim and ravuconazole as promising drug candidates for the treatment of eumycetoma” (PLoS Neglected Tropical Diseases, 2022).
Where two headings read alike, the source gives them in different places.

How the values were obtained:
[1] = test system: M. mycetomatis MM55; assay: IC50 determination, 2-fold dilution series 16 to 0.03125 μM; type: cell-based, Madurella mycetomatis; conditions: Madurella mycetomatis, MM55, Table 3; benzimidazole carbamates; M. mycetomatis; read-out: IC50
[2] = test system: M. mycetomatis genome strain MM55; assay: CLSI M38-A2 based in vitro susceptibility screening (XTT or resazurin), growth at fixed concentration; type: cell-based, Madurella mycetomatis; conditions: Madurella mycetomatis; for Percent fungal survival at 100 µM: read-out: Percentage survival at 100um, 100 uM A (second replicate column)
[3] = 25 uM, mean of replicates, MM55, read-out: Percentage survival at 25um, 25 uM mean
[4] = 25 uM, replicate A, MM55, read-out: Percentage survival at 25um, 25 um A
[5] = 25 uM, replicate B, MM55, read-out: Percentage survival at 25um, 25 uM B
[6] = 25 uM, replicate C, MM55, read-out: Percentage survival at 25um, 25 uM C
[7] = mean of replicates, MM55, read-out: Percentage survival at 100um, 100 uM mean
[8] = replicate 1, MM55, read-out: Percentage survival at 100um, 100 uM A
[9] = replicate 2, MM55, read-out: Percentage survival at 100um, 100 uM A
[10] = replicate 3, MM55, read-out: Percentage survival at 100um, 100 uM A
[11] = 25 uM, replicate A, read-out: Percentage survival at 25um, 25 um A
[12] = 25 uM, replicate B, read-out: Percentage survival at 25um, 25 uM B
[13] = 25 uM, replicate C, read-out: Percentage survival at 25um, 25 uM C
[14] = replicate 1, read-out: Percentage survival at 100um, 100 uM A (first replicate column)
[15] = replicate 3, read-out: Percentage survival at 100um, 100 uM A (third replicate column)
[16] = 25 uM, mean, read-out: Percentage survival at 25um, 25 uM mean
[17] = mean, read-out: Percentage survival at 100um, 100 uM mean
[18] = replicate (first column), read-out: Percentage survival at 100um, 100 uM A
[19] = replicate (second column), read-out: Percentage survival at 100um, 100 uM A
[20] = replicate (third column), read-out: Percentage survival at 100um, 100 uM A
[21] = 25 uM, mean of three replicates, read-out: Percentage survival at 25um, 25 uM mean
[22] = mean of three replicates, read-out: Percentage survival at 100um, 100 uM mean

| Structure (SMILES) | activity at 25 µM [2, 3] | activity at 25 µM [2, 4] | activity at 25 µM [2, 5] | activity at 25 µM [2, 6] | activity at 100 µM [2, 7] | activity at 100 µM [2, 8] | activity at 100 µM [2, 9] | activity at 100 µM [2, 10] | activity at 25 µM [2, 11] | activity at 25 µM [2, 12] | activity at 25 µM [2, 13] | activity at 25 µM [2, 16] | activity at 100 µM [2, 17] | activity at 100 µM [2, 18] | activity at 100 µM [2, 19] | activity at 100 µM [2, 20] | also measured |
| --- | --- | --- | --- | --- | --- | --- | --- | --- | --- | --- | --- | --- | --- | --- | --- | --- | --- |
| CCCOc1ccc2nc(NC(=O)OC)[nH]c2c1 [MMV002163, Oxibendazole, reference compound] | – | – | – | – | – | – | – | – | – | – | – | – | – | – | – | – | IC50 [1]: 69.1 µM |
| CCCCOC(=O)Nc1cc2nc(C3CCCCC3)[nH]c2cc1N1CCCC1 [MMV687730] | – | – | – | – | – | – | – | – | – | – | – | – | – | – | – | – | IC50 [1]: 11.6 µM |
| CC(C)CCN1C(=O)C(C2=NS(=O)(=O)c3cc(NS(C)(=O)=O)ccc3N2)=C(O)[C@@H]2[C@H]3CC[C@H](C3)[C@@H]21 [MMV1782220] | 83.6% | 78.4% | 83.3% | 89.2% | 113% | 140% | 71% | 127% | – | – | – | – | – | – | – | – | – |
| C[C@H](c1cccc2ccccc12)N(C)Cc1ccccc1 [MMV1782221] | – | – | – | – | – | – | – | – | – | – | – | – | – | – | – | – | activity at 25 µM ([2]; 25 uM, mean of three, M. mycetomatis MM55, read-out: Percentage survival at 25um, 25 uM mean): 60.5%; activity at 25 µM ([2]; 25 uM, replicate A, M. mycetomatis MM55, read-out: Percentage survival at 25um, 25 um A): 78.4%; activity at 25 µM ([2]; 25 uM, replicate B, M. mycetomatis MM55, read-out: Percentage survival at 25um, 25 uM B): 99.2%; activity at 25 µM ([2]; 25 uM, replicate C, M. mycetomatis MM55, read-out: Percentage survival at 25um, 25 uM C): 3.87%; activity at 100 µM ([2]; mean of three, M. mycetomatis MM55, read-out: Percentage survival at 100um, 100 uM mean): 78.8%; activity at 100 µM ([2]; replicate 1, M. mycetomatis MM55, read-out: Percentage survival at 100um, 100 uM A (first replicate column)): 56%; Percent fungal survival at 100 µM ([2]; replicate 2, M. mycetomatis MM55): 63.1%; activity at 100 µM ([2]; replicate 3, M. mycetomatis MM55, read-out: Percentage survival at 100um, 100 uM A (third replicate column)): 117% |
| CN1c2ccc(Cl)cc2N(c2ccccc2)C(=O)c2cn(Cc3ccc(CN4CCOCC4)cc3)nc21 [MMV1782222] | – | – | – | – | – | – | – | – | 58.9% | 64.9% | 59.6% | – | – | – | – | – | activity at 25 µM ([2]; 25 uM, mean of replicates, read-out: Percentage survival at 25um, 25 uM mean): 61.1%; activity at 100 µM ([2]; mean of replicates, read-out: Percentage survival at 100um, 100 uM mean): 60.2%; activity at 100 µM [2, 14]: 52.1%; Percent fungal survival at 100 µM ([2]; replicate 2): 70.5%; activity at 100 µM [2, 15]: 58.2% |
| CN(C)c1[nH]c(=O)ncc1F [MMV1782223] | – | – | – | – | – | – | – | – | 97% | 101% | 80.9% | 93% | 82.8% | 84% | 75.3% | 88.9% | – |
| O=C(Nc1[nH]c(=O)ncc1F)c1ccccc1 [MMV1782225] | – | – | – | – | – | – | – | – | 82.4% | 77.6% | 77.1% | 79% | 83.6% | 74.1% | 79.1% | 97.6% | – |
| OB1OCc2c1ccc(Cl)c2F [MMV1782226] | – | – | – | – | – | – | – | – | 54.6% | 46.9% | 63.1% | 54.9% | 64.2% | 55.3% | 77.4% | 59.8% | – |
| O=C(NNC(=S)Nc1ccc(Cl)cc1)c1ccncc1 [MMV1782227] | – | – | – | – | – | – | – | – | 105% | 86.1% | 67% | 85.9% | 121% | 128% | 90.7% | 144% | – |
| Cc1cc(CCOc2c(C)cc(-c3nnn(C)n3)cc2C)on1 [MMV1782349] | 75.6% | 84.4% | 90% | 52.4% | 52.1% | 44.9% | 65% | 46.2% | – | – | – | – | – | – | – | – | – |
| CC(C)Oc1ccc(-n2cnc3cc(/C=C\c4ccc(C(C)(C)O)cc4)ccc32)cc1 [MMV1782350] | 60.8% | 60% | 63% | 59.5% | 55.5% | 57.8% | 56.4% | 52.3% | – | – | – | – | – | – | – | – | – |
| O=C(NC(=O)N1CCCc2ccccc21)c1cccc(Cl)c1 [MMV1782351] | – | – | – | – | – | – | – | – | 96.8% | 101% | 78.3% | 92% | 75.7% | 73.9% | 74.5% | 78.6% | – |
| O=C(O)COc1cccc2c1CC[C@](O)(COC(=O)N(c1ccccc1)c1ccccc1)C2 [MMV1782352] | 89.4% | 92.5% | 96.3% | 79.5% | 88.8% | 91.1% | 97.6% | 77.7% | – | – | – | – | – | – | – | – | – |
| CC(C)(C)NC(=O)[C@@H]1CN(Cc2cnc3occc3c2)CCN1C[C@@H](O)C[C@@H](Cc1ccccc1)C(=O)N[C@H]1c2ccccc2C[C@H]1O [MMV1782353] | 97.1% | 103% | 101% | 87.6% | 86.3% | 97% | 84.7% | 77.2% | – | – | – | – | – | – | – | – | – |
| Nc1nc2c(Cc3cccnc3)c[nH]c2c(=O)[nH]1 [MMV1782355] | – | 97.7% | – | – | 88.4% | 88.7% | 105% | 71.4% | – | – | – | – | – | – | – | – | activity at 25 µM ([2]; read-out: Percentage survival at 25um, 25 uM B): 95.7%; activity at 25 µM ([2]; read-out: Percentage survival at 25um, 25 uM C): 78.5%; activity at 25 µM ([2]; read-out: Percentage survival at 25um, 25 uM mean): 90.6% |
| CN(O)C(=O)c1cc2c(CN3CCC[C@H]3C(N)=O)cn(Cc3ccc(F)cc3)c2cn1 [MMV1782386] | 91.7% | 95% | 96.1% | 84% | 86% | 87.4% | 91.4% | 79.3% | – | – | – | – | – | – | – | – | – |
| CNc1nc(=O)[nH]cc1F [MMV1782388] | – | – | – | – | – | – | – | – | 88.9% | 76.2% | 78.1% | 81.1% | 93.4% | 99.3% | 85.3% | 95.6% | – |
| Cc1cc(C)n(O)c(=O)c1 [MMV1782389] | – | – | – | – | – | – | – | – | 87.4% | 82.9% | 74.1% | 81.5% | 81.6% | 67.6% | 78.2% | 99.1% | – |
| Cc1cc(C)n2nc(C(=O)NS(=O)(=O)c3c(C)cccc3OC(F)(F)F)nc2n1 [MMV1782402] | – | – | – | – | – | – | – | – | 98.2% | 98.8% | 91.3% | – | – | – | – | – | activity at 25 µM [2, 21]: 96.1%; activity at 100 µM [2, 22]: 91.2%; activity at 100 µM [2, 14]: 99%; Percent fungal survival at 100 µM ([2]; replicate 2): 92.6%; activity at 100 µM [2, 15]: 82% |
| CCNC(=O)Nc1cn2c(-c3ncc(CC)cn3)cc(-c3cccnc3)cc2n1 [MMV1782403] | – | – | – | – | – | – | – | – | 109% | 132% | 85.2% | – | – | – | – | – | activity at 25 µM [2, 21]: 109%; activity at 100 µM [2, 22]: 84.3%; activity at 100 µM [2, 14]: 77.2%; Percent fungal survival at 100 µM ([2]; replicate 2): 79.4%; activity at 100 µM [2, 15]: 96.3% |
| O=S(=O)(NCB(O)O)c1ccc(-c2nnn[nH]2)cc1C(F)(F)F [MMV1782411] | – | – | – | – | – | – | – | – | 61.4% | 112% | 78.7% | – | – | – | – | – | activity at 25 µM [2, 21]: 83.9%; activity at 100 µM [2, 22]: 88.5%; activity at 100 µM [2, 14]: 91.5%; Percent fungal survival at 100 µM ([2]; replicate 2): 83.7%; activity at 100 µM [2, 15]: 90.2% |
| NC(=O)C(c1ccccc1)(c1ccccc1)[C@H]1CCCN(CCc2ccc3c(c2)CCO3)C1 [MMV1782412] | 101% | 130% | 101% | 70.7% | 68.7% | 67.1% | 68% | 71% | – | – | – | – | – | – | – | – | – |
